According to US11492385B2, “Long-acting co-agonists of the glucagon and GLP-1 receptors” (Merck Sharp & Dohme Corp., priority 2015, dated 2022):
Entries after “also recorded” stand apart in the source; their conditions may differ. Starred links: 1 amine or outer side, 2 acyl side, 3 side chain; linkers in the order of their positions; H or OH if unused. Non-standard residues stand in square brackets, D forms with d. Residues, ends and D or L forms follow the SMILES beside them. Groups on a side chain read outwards from the residue. No end group written: not given here. *: point of attachment. Phe(4-CH2NH2) = NCc1ccc(C[C@H](N)C(=O)O)cc1; C18 diacid = O=C(O)CCCCCCCCCCCCCCCCC(=O)*; C16 diacid = O=C(O)CCCCCCCCCCCCCCC(=O)*; γGlu = O=C(O)[C@H](CCC(=O)[*:2])N[*:1]; Met(O2) = CS(=O)(=O)CC[C@H](N)C(=O)O; αMeD = C[C@](N)(CC(=O)O)C(=O)O; AEEA = NCCOCCOCC(=O)O; Aib = CC(C)(N)C(=O)O

What was measured:
[1] = biological target: T1, human GCGR (Homo sapiens, UniProt P47871); assay: cAMP activity assay, cells expressing human GCGR; type: cell-based
T1 construct: expressed in transfected cells; kept under Blasticidin and Hygromycin selection
T1 sequence (P47871 26-477): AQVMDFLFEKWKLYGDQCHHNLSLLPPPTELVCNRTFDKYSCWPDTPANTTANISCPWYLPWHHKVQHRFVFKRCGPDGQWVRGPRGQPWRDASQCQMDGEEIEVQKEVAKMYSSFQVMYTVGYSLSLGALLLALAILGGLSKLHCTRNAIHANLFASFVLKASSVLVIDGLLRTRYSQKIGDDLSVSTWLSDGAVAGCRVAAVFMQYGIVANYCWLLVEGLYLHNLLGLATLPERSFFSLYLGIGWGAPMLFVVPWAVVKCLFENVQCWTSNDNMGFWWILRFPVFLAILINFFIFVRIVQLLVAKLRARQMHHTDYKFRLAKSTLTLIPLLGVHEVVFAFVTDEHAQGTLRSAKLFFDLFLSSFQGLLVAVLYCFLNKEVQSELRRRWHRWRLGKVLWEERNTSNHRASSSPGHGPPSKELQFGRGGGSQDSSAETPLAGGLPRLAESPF
Outline: (§1)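 Peptides as 10-point titrations from DMSO tested on cells expressing human GLP1R or GCGR. cAMP measured by luminescent kit after overnight room-temperature incubation in the dark. EC50 from four-parameter logistic fit; native GLP-1 and glucagon as controls.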

[2] = biological target: T2, human GLP1R (Homo sapiens, UniProt P43220); assay: cAMP activity assay, cells expressing human GLP1R; type: cell-based; settings: cAMP production, assay buffer with or without 20% human serum (not stated which)
T2 construct: expressed in transfected cells; kept under Blasticidin and Hygromycin selection
T2 sequence (P43220 24-463): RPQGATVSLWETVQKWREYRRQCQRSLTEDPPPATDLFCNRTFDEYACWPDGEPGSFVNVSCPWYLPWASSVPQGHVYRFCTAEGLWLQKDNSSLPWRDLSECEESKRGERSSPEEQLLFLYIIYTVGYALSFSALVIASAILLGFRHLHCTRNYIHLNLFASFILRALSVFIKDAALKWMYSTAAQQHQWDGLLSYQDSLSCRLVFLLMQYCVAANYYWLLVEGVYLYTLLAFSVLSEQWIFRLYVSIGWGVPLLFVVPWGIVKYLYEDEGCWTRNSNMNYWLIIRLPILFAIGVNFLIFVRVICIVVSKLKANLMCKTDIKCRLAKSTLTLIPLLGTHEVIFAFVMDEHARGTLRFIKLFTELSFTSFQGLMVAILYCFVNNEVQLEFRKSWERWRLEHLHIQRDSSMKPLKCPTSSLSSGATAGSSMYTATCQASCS
Outline: as §1

[3] = Duration of action in DIO mice: food intake after a single sc dose; type: in vivo; settings: for change in food intake over four days: single sc dose at day zero, compared to liraglutide and semaglutide (FIG. 1B)
Experimental: (§2) In this example, the duration of action of several of the peptides or co-agonist peptides was evaluated in diet-induced obese (DIO) mice. The duration of action of the peptides were compared to the duration of action of Semaglutide (sema) and Liraglutide (lira). The peptides tested were SEQ ID NOs: 2, 19, 28, 29, and 33 (Seq 2, Seq 19, Seq 28, Seq 29, and Seq 33, respectively).

[4] = Duration of action in DIO mice: blood glucose after a single sc dose; type: in vivo; settings: single sc dose at day zero, compared to liraglutide and semaglutide (FIG. 1C)
Experimental: as §2

[5] = mouse, in vivo, sc
Experimental: DIO mice were divided into groups of eight mice per group and the initial average body weight, food intake and basal glucose of each group were matched. Each group of mice was subcutaneously (sc) injected with a single dose of peptide or vehicle control. The administered doses varied between 3 and 300 nmol/kg. […] A separate set of mice were treated with same dose of each peptide. Serial blood was taken at 5 hours, 24 hours, 48 hours and 72 hours post sc injection to measure drug exposure.

[6] = Duration of action in DIO mice: body weight after a single sc dose; type: in vivo; settings: for change in body weight over four days: single sc dose at day zero, compared to liraglutide and semaglutide (FIG. 1A)
Experimental: as §2

## CC(C)C[C@H](NC(=O)[C@H](CC(C)C)NC(=O)[C@H](CCCCN)NC(=O)[C@H](CO)NC(=O)[C@H](Cc1ccc(O)cc1)NC(=O)[C@H](CC(=O)O)NC(=O)[C@H](CO)NC(=O)[C@@H](NC(=O)[C@H](Cc1ccccc1)NC(=O)[C@@H](NC(=O)CNC(=O)[C@H](CCC(N)=O)NC(=O)C(C)(C)NC(=O)[C@@H](N)Cc1c[nH]cn1)[C@@H](C)O)[C@@H](C)O)C(=O)N[C@@H](CC(=O)O)C(=O)N[C@@H](C)C(=O)N[C@@H](CCCNC(=N)N)C(=O)N[C@@H](C)C(=O)N[C@@H](C)C(=O)N[C@@H](CCCCNC(=O)COCCOCCNC(=O)COCCOCCNC(=O)CC[C@H](NC(=O)CCCCCCCCCCCCCCCCC(=O)O)C(=O)O)C(=O)N[C@@H](CC(=O)O)C(=O)N[C@@H](Cc1ccccc1)C(=O)N[C@H](C(=O)N[C@@H](CCC(N)=O)C(=O)N[C@@H](Cc1c[nH]c2ccccc12)C(=O)N[C@@H](CC(C)C)C(=O)N[C@@H](CCS(C)(=O)=O)C(=O)N[C@@](C)(CC(=O)O)C(=O)N[C@H](C(N)=O)[C@@H](C)O)C(C)C [compound 79] (H-H[Aib]QGTFTSDYSKLLDARAAK([AEEA-AEEA-γGlu-C18 diacid])DFVQWL[Met(O2)][αMeD]T-NH2)
[1]; cAMP production, cells expressing human GCGR, assay buffer with or without 20% human serum (not stated which), read-out: GCGR EC50 human
  EC50: 0.69 nM
[1]; ratio of human GCGR EC50 to human GLP1R EC50
  hGCGR/hGLP1R (hTone): 0.8
[2]
  EC50: 0.84 nM

## HXQGTFTSDYSKYLDARAAK( ? -γE-C16—OH)DFVQWL2DT—NH2 (H[Aib]QGTFTSDYSKYLDARAAK([AEEA-AEEA-γGlu-C16 diacid])DFVQWL[Met(O2)]DT-NH2; N-terminus assumed; SMILES CC(C)C[C@H](NC(=O)[C@H](Cc1ccc(O)cc1)NC(=O)[C@H](CCCCN)NC(=O)[C@H](CO)NC(=O)[C@H](Cc1ccc(O)cc1)NC(=O)[C@H](CC(=O)O)NC(=O)[C@H](CO)NC(=O)[C@@H](NC(=O)[C@H](Cc1ccccc1)NC(=O)[C@@H](NC(=O)CNC(=O)[C@H](CCC(N)=O)NC(=O)C(C)(C)NC(=O)[C@@H](N)Cc1c[nH]cn1)[C@@H](C)O)[C@@H](C)O)C(=O)N[C@@H](CC(=O)O)C(=O)N[C@@H](C)C(=O)N[C@@H](CCCNC(=N)N)C(=O)N[C@@H](C)C(=O)N[C@@H](C)C(=O)N[C@@H](CCCCNC(=O)COCCOCCNC(=O)COCCOCCNC(=O)CC[C@H](NC(=O)CCCCCCCCCCCCCCC(=O)O)C(=O)O)C(=O)N[C@@H](CC(=O)O)C(=O)N[C@@H](Cc1ccccc1)C(=O)N[C@H](C(=O)N[C@@H](CCC(N)=O)C(=O)N[C@@H](Cc1c[nH]c2ccccc12)C(=O)N[C@@H](CC(C)C)C(=O)N[C@@H](CCS(C)(=O)=O)C(=O)N[C@@H](CC(=O)O)C(=O)N[C@H](C(N)=O)[C@@H](C)O)C(C)C) [SEQ ID NO: 19]
[3]; single dose at 20 nmol/kg or 60 nmol/kg at day zero, compared to liraglutide and semaglutide (FIG. 3B)
  change in food intake over eight days: comparable to liraglutide or semiglutide in reducing food intake
[3]
  change in food intake over four days: more sustained reduction in food intake
[4]
  blood glucose lowering effect over four days: greater reduction in blood glucose
[5]
  PK over three days: more prolonged PK
[6]; single dose at 20 nmol/kg or 60 nmol/kg at day zero, compared to liraglutide and semaglutide (FIG. 3A)
  change in body weight over eight days: more pronounced and sustained change in body weight
[6]
  change in body weight over four days: more pronounced and sustained change in body weight

## HXQGTFTSDYSKYLDARAAK( ? -γE-C18—OH)DFVQWL2DT—NH2 (H[Aib]QGTFTSDYSKYLDARAAK([AEEA-AEEA-γGlu-C18‑OH])DFVQWL[Met(O2)]DT-NH2) [SEQ ID NO: 29]
[3]; listed as Seq 29
  change in food intake over four days: more sustained reduction in food intake; also recorded: particularly evident
[4]; listed as Seq 29
  blood glucose lowering effect over four days: greater reduction in blood glucose
[4]; listed as Seq29
  blood glucose lowering effect over four days: particularly effective
[6]; listed as Seq 29
  change in body weight over four days: more pronounced and sustained change in body weight; also recorded: particularly pronounced

## HXQGTFTSDYSKYLDARAAK( ? -γE-C18—OH)DFVQWL2αMDT—NH2 (H[Aib]QGTFTSDYSKYLDARAAK([AEEA-AEEA-γGlu-C18‑OH])DFVQWL[Met(O2)][αMeD]T-NH2) [SEQ ID NO: 33]
[3]; listed as Seq 33
  change in food intake over four days: more sustained reduction in food intake; also recorded: particularly evident
[4]; listed as Seq 33
  blood glucose lowering effect over four days: greater reduction in blood glucose; also recorded: particularly effective
[5]
  PK over three days: more prolonged PK
[6]; listed as Seq 33
  change in body weight over four days: more pronounced and sustained change in body weight; also recorded: particularly pronounced

## HXQGTFTSDpAF( ? -γE-C18—OH)SKYLDARAAQDFVQWL2DT—NH2 (H[Aib]QGTFTSD[Phe(4-CH2NH2)]([AEEA-AEEA-γGlu-C18‑OH])SKYLDARAAQDFVQWL[Met(O2)]DT-NH2) [SEQ ID NO: 28]
[3]
  change in food intake over four days: more sustained reduction in food intake
[4]
  blood glucose lowering effect over four days: greater reduction in blood glucose
[6]
  change in body weight over four days: more pronounced and sustained change in body weight

## HsQGTFTSDYSKYLDARAAK( ? -γE-C16—OH)DFVQWLLDT—NH2 (H[dS]QGTFTSDYSKYLDARAAK([AEEA-AEEA-γGlu-C16 diacid])DFVQWLLDT-NH2; N-terminus assumed; SMILES CC(C)C[C@H](NC(=O)[C@H](Cc1ccc(O)cc1)NC(=O)[C@H](CCCCN)NC(=O)[C@H](CO)NC(=O)[C@H](Cc1ccc(O)cc1)NC(=O)[C@H](CC(=O)O)NC(=O)[C@H](CO)NC(=O)[C@@H](NC(=O)[C@H](Cc1ccccc1)NC(=O)[C@@H](NC(=O)CNC(=O)[C@H](CCC(N)=O)NC(=O)[C@@H](CO)NC(=O)[C@@H](N)Cc1c[nH]cn1)[C@@H](C)O)[C@@H](C)O)C(=O)N[C@@H](CC(=O)O)C(=O)N[C@@H](C)C(=O)N[C@@H](CCCNC(=N)N)C(=O)N[C@@H](C)C(=O)N[C@@H](C)C(=O)N[C@@H](CCCCNC(=O)COCCOCCNC(=O)COCCOCCNC(=O)CC[C@H](NC(=O)CCCCCCCCCCCCCCC(=O)O)C(=O)O)C(=O)N[C@@H](CC(=O)O)C(=O)N[C@@H](Cc1ccccc1)C(=O)N[C@H](C(=O)N[C@@H](CCC(N)=O)C(=O)N[C@@H](Cc1c[nH]c2ccccc12)C(=O)N[C@@H](CC(C)C)C(=O)N[C@@H](CC(C)C)C(=O)N[C@@H](CC(=O)O)C(=O)N[C@H](C(N)=O)[C@@H](C)O)C(C)C) [SEQ ID NO: 2]
[3]
  change in food intake over four days: more sustained reduction in food intake
[6]
  change in body weight over four days: more pronounced and sustained change in body weight
